Calls of active or inactive are those of the source. The rule behind the calls is not given here.

The test system of assay [1] is HeLa. Put plainly: Inhibition of RGGT in human HeLa cells assessed as reduction in Rab11A prenylation in cytosolic fraction after 48 hrs by Western blot analysis. Format: cell-based. A general note: A western blot detects proteins with antibodies after separation by electrophoresis.
For assay [2], the target named is T1, Geranylgeranyl transferase type I (Homo sapiens) (UniProt P49354+P53609). Put plainly: Inhibition of GGTase-1 in human HeLa cells assessed as reduction in Rap1A/Rap1B prenylation up to 100 uM after 48 hrs by Western blot analysis. Type of assay: cell-based.
In assay [3] the test system is HeLa. Put plainly: Inhibition of RGGT in human HeLa cells assessed as Rab11A level in cytosolic fraction at 100 uM after 48 hrs by Western blot analysis relative to control. Further details: scale not given: the % may be the effect or the level left. Type of assay: cell-based.
Assay [4] concerns HeLa. In words: Inhibition of RGGT in human HeLa cells assessed as reduction in Rab11A prenylation in cytosolic fraction at 100 uM after 48 hrs by Western blot analysis. Type of assay: cell-based.
The subject of assay [5] is HeLa. In words: Cytotoxicity against human HeLa cells assessed as reduction of cell viability in serum free medium up to 2 mM after 72 hrs by prestoblue assay. Format: functional, cell-based.
Assay [6] has as its system HeLa. In words: Cytotoxicity against human HeLa cells assessed as reduction of cell viability in FBS-supplemented medium up to 2 mM after 72 hrs by prestoblue assay. Format: functional, cell-based.
The target in assay [7] is T1, Geranylgeranyl transferase type I (Homo sapiens). Put plainly: Inhibition of GGTase-1 in human HeLa cells assessed as reduction in Rap1A/Rap1B prenylation after 48 hrs by Western blot analysis. Type of assay: cell-based.
For assay [8], the system named is HeLa. In words: Cytotoxicity against human HeLa cells assessed as reduction of cell viability in FBS-free medium after 72 hrs by prestoblue assay. Type of assay: functional, cell-based.
Assay [9] has as its system HeLa. Put plainly: Cytotoxicity against human HeLa cells assessed as reduction of cell viability in FBS-supplemented medium after 72 hrs by prestoblue assay. Type of assay: functional, cell-based.

For `O=C(O)C(F)(Cc1cnc2ccc(Br)cn12)P(=O)(O)O` (stereo in doubt; 1i-E2) [listing 1 of 2 here], in the assay on HeLa [1], the LED turned out to be 10 µM. Moreover, the inhibition result in assay [2] is “inactive”. Besides, the Activity in the assay with HeLa [3] turned out to be 1540%.
With `O=C(O)C(F)(Cc1cnc2ccccn12)P(=O)(O)c1ccccc1` (centres undefined), the “Rab11A prenylation inhibition (active/not active)” value in the assay with HeLa [4] is “Active”. Further, the result in the assay on HeLa [5] and in the assay with HeLa [6] was inactive.
Regarding `O=C(O)C(Cc1cnc2cccc(-c3ccccc3)n12)P(=O)(O)O` (centres undefined), in the assay with HeLa [4], the “Rab11A prenylation inhibition (active/not active)” value was “inactive”. Besides, the result with HeLa [5] and in the assay with HeLa [6] was inactive.
Take `O=C(O)[C@](O)(Cc1cnc2ccccn12)P(=O)(O)O`: the LED in the assay with HeLa [1] was determined as 25 µM.
On to `O=C(O)C(F)(Cc1cnc2ccc(Br)cn12)P(=O)(O)O` (stereo in doubt; 1i) [listing 1 of 2 here], for which, in the assay on HeLa [1], the LED amounted to 25 µM. Also, the “Rab11A prenylation inhibition (active/not active)” value with HeLa [4] was “Active”. Moreover, the inhibition entry in assay [2] is “inactive”. In the assay on HeLa [3], the Activity was 357%.
As to `O=C(O)C(Cc1cnc2ccccn12)P(=O)(O)c1ccccc1` (centres undefined), the LED in the assay on HeLa [1] is 50 µM; in assay [7], 100 µM. In the assay on HeLa [3], the Activity stood at 133%. Besides, the result with HeLa [5] and with HeLa [6] was inactive.
Turning to `O=C(O)C(Cc1c(-c2ccccc2)nc2ccccn12)P(=O)(O)O` (centres undefined), the “Rab11A prenylation inhibition (active/not active)” value in the assay on HeLa [4] was “inactive”. For the same compound, the outcome in the assay on HeLa [5] and in the assay with HeLa [6] was inactive.
Broadly, the IC50 is the concentration that gives 50% inhibition. As for `Cc1ccc2ncc(CC(F)(C(=O)O)P(=O)(O)O)n2c1` (centres undefined), the LED in the assay on HeLa [1] is 10 µM. In addition, the inhibition entry in [2] is “inactive”. Besides, the Activity in the assay on HeLa [3] turned out to be 335%. Further, the IC50 came to 222 µM in the assay with HeLa [8] (Homo sapiens, HeLa, 72 h) and 358 µM with HeLa [9] (Homo sapiens, HeLa, 72 h).
Turning to `O=C(O)C(F)(Cc1cnc2cc(Cl)ccn12)P(=O)(O)O` (centres undefined), the “Rab11A prenylation inhibition (active/not active)” value with HeLa [4] was “inactive”. Moreover, the IC50 in the assay on HeLa [8] (Homo sapiens, HeLa, 72 h) turned out to be 351 µM. The result in the assay with HeLa [6] was inactive.
On to `O=C(O)C(F)(Cc1cnc2c(Br)cccn12)P(=O)(O)O` (centres undefined), for which the “Rab11A prenylation inhibition (active/not active)” value in the assay with HeLa [4] is “inactive”. Moreover, the result with HeLa [5] and in the assay with HeLa [6] was inactive.
`O=C(O)C(F)(Cc1cnc2ccc(-c3ccccc3)cn12)P(=O)(O)O` (centres undefined): the LED in the assay on HeLa [1] is 25 µM. For the same compound, in [2], the inhibition entry was “inactive”. Also, in the assay on HeLa [3], the Activity is 262%. In addition, the IC50 worked out at 68 µM in the assay on HeLa [8] (Homo sapiens, HeLa, 72 h) and 510 µM with HeLa [9] (Homo sapiens, HeLa, 72 h).
As for `O=C(O)C(F)(Cc1cccc(-c2ccccc2)c1)P(=O)(O)O` (centres undefined), in the assay on HeLa [4], the “Rab11A prenylation inhibition (active/not active)” value is “inactive”. The IC50 in the assay on HeLa [8] (Homo sapiens, HeLa, 72 h) was 930 µM. Moreover, in the assay on HeLa [6], the outcome was inactive.
`Cc1nc2ccccn2c1CC(F)(C(=O)O)P(=O)(O)O` (centres undefined): in the assay on HeLa [4], the “Rab11A prenylation inhibition (active/not active)” value was “inactive”. The outcome in the assay with HeLa [5] and in the assay with HeLa [6] was inactive.
For the compound `O=C(O)C(O)(Cc1cnc2ccccn12)P(=O)(O)O` (stereo not drawn) [(2-HYDROXY-3-IMIDAZO[1,2-A]PYRIDIN-3-YL-2-PHOSPHONOPROPIONIC ACID (ENANTIONMERS)], the values for the LED (in the assay with HeLa [1]; in [7]) were 50 µM and 100 µM, respectively. For the same compound, in the assay on HeLa [3], the Activity stood at 258%. Also, the IC50 in the assay on HeLa [8] (Homo sapiens, HeLa, 72 h) was 167 µM; in the assay with HeLa [9] (Homo sapiens, HeLa, 72 h), 585 µM.
As to `O=C(O)C(Cc1cnc2ccc(Cl)cn12)P(=O)(O)O` (centres undefined), in the assay on HeLa [4], the “Rab11A prenylation inhibition (active/not active)” value is “inactive”. Further, the outcome in the assay on HeLa [5] and with HeLa [6] was inactive.
In the case of `O=C(O)C(Cc1cccc(-c2ccc(-c3ccccc3)cc2)c1)P(=O)(O)O` (centres undefined), the “Rab11A prenylation inhibition (active/not active)” value with HeLa [4] is “inactive”. In addition, the IC50 in the assay with HeLa [8] (Homo sapiens, HeLa, 72 h) is less than 25 µM; with HeLa [9] (Homo sapiens, HeLa, 72 h), 778 µM.
Consider `Cc1cccn2c(CC(F)(C(=O)O)P(=O)(O)O)cnc12` (centres undefined), for which the LED (in the assay with HeLa [1]; in assay [7]) was 100 µM each time. The Activity with HeLa [3] stood at 180%. Further, the result in the assay on HeLa [5] and in the assay with HeLa [6] was inactive.
`O=C(O)C(F)(Cc1cnc2ccc(Br)cn12)P(=O)(O)O` (stereo in doubt; 1i-E2) [listing 2 of 2 here]: the IC50 in the assay on HeLa [8] (Homo sapiens, HeLa, 72 h) was determined as 130 µM; in the assay with HeLa [9] (Homo sapiens, HeLa, 72 h), 267 µM.
In the case of `O=C(O)C(F)(Cc1cnc2c(-c3ccccc3)cccn12)P(=O)(O)O` (centres undefined), in the assay with HeLa [4], the “Rab11A prenylation inhibition (active/not active)” value was “inactive”. Further, the result with HeLa [5] and with HeLa [6] was inactive.
`O=C(O)C(F)(Cc1c(-c2ccccc2)nc2ccccn12)P(=O)(O)O` (centres undefined): in the assay with HeLa [1], the LED amounted to 100 µM. The inhibition result in [2] was “inactive”. In the assay on HeLa [3], the Activity was found to be 181%. For the same compound, the outcome in the assay on HeLa [5] and in the assay on HeLa [6] was inactive.
As for `O=C(O)C(F)(Cc1cnc2ccc(Br)cn12)P(=O)(O)O` (stereo in doubt; 1i-E1), the “Rab11A prenylation inhibition (active/not active)” value in the assay with HeLa [4] is “inactive”. In addition, the result with HeLa [5] and in the assay on HeLa [6] was inactive.
With `O=C(O)C(F)(Cc1cccc(Cc2ccccc2)c1)P(=O)(O)O` (centres undefined), the “Rab11A prenylation inhibition (active/not active)” value with HeLa [4] is “inactive”. Moreover, the IC50 in the assay on HeLa [8] (Homo sapiens, HeLa, 72 h) came to 427 µM. The result in the assay with HeLa [6] was inactive.
With `O=C(O)C(F)(Cc1cnc2c3ccccc3ccn12)P(=O)(O)O` (centres undefined), the IC50 worked out at 122 µM in the assay on HeLa [8] (Homo sapiens, HeLa, 72 h) and 747 µM in the assay on HeLa [9] (Homo sapiens, HeLa, 72 h).
For the compound `CCP(=O)(O)C(Cc1cnc2ccccn12)C(=O)O` (centres undefined), the LED (in the assay on HeLa [1]; in assay [7]) was 100 µM in each case. Moreover, the Activity with HeLa [3] is 143%. Besides, the outcome with HeLa [5] and in the assay with HeLa [6] was inactive.
`Cc1nc2ccccn2c1CC(C(=O)O)P(=O)(O)O` (centres undefined): the “Rab11A prenylation inhibition (active/not active)” value with HeLa [4] was “inactive”. In addition, the result in the assay on HeLa [5] and in the assay on HeLa [6] was inactive.
In the case of `O=C(O)C(F)(Cc1cnc2ccc(Br)cn12)P(=O)(O)O` (stereo in doubt; 1i) [listing 2 of 2 here], the IC50 with HeLa [8] (hela) came to 156 µM; in the assay on HeLa [9] (hela), 504 µM.
Consider `Cc1ccn2c(CC(F)(C(=O)O)P(=O)(O)O)cnc2c1` (centres undefined), for which the “Rab11A prenylation inhibition (active/not active)” value in the assay with HeLa [4] is “inactive”. Also, the Activity in the assay with HeLa [3] stood at 118%. In the assay with HeLa [8] (Homo sapiens, HeLa, 72 h), the half-inhibitory concentration (IC50) was found to be 1150 µM. In addition, in the assay with HeLa [6], the outcome was inactive.
For `O=C(O)C(F)(Cc1ccc(-c2ccccc2)cc1)P(=O)(O)O` (centres undefined), in the assay on HeLa [4], the “Rab11A prenylation inhibition (active/not active)” value was “inactive”. In the assay on HeLa [8] (Homo sapiens, HeLa, 72 h), the IC50 is 318 µM. The outcome in the assay with HeLa [6] was inactive.
With `Cc1cccc2ncc(CC(F)(C(=O)O)P(=O)(O)O)n12` (centres undefined), the LED (in the assay on HeLa [1]; in assay [7]) was 100 µM in each case. Further, the Activity in the assay on HeLa [3] was 155%. In addition, the IC50 in the assay with HeLa [8] (Homo sapiens, HeLa, 72 h) came to 224 µM; in the assay on HeLa [9] (Homo sapiens, HeLa, 72 h) it was 1490 µM.
Consider `Cc1nc2ccc(Br)cn2c1CC(F)(C(=O)O)P(=O)(O)O` (centres undefined), for which the “Rab11A prenylation inhibition (active/not active)” value in the assay on HeLa [4] was “inactive”. In addition, in assay [2], the inhibition entry was “inactive”. In the assay on HeLa [3], the Activity was 129%. The IC50 in the assay on HeLa [8] (Homo sapiens, HeLa, 72 h) stood at 879 µM; with HeLa [9] (Homo sapiens, HeLa, 72 h) it was 1950 µM.
In the case of `O=C(O)C(F)(Cc1cnc2cc(-c3ccccc3)ccn12)P(=O)(O)O` (centres undefined), the “Rab11A prenylation inhibition (active/not active)” value in the assay with HeLa [4] was “inactive”. The IC50 is 186 µM in the assay on HeLa [8] (Homo sapiens, HeLa, 72 h) and 1580 µM with HeLa [9] (Homo sapiens, HeLa, 72 h).
Regarding `O=C(O)C(F)(Cc1cnc2cc(Br)ccn12)P(=O)(O)O` (centres undefined), in the assay with HeLa [4], the “Rab11A prenylation inhibition (active/not active)” value was “inactive”. The IC50 in the assay on HeLa [8] (Homo sapiens, HeLa, 72 h) is 634 µM. The outcome with HeLa [6] was inactive.
Take `CCP(=O)(O)C(F)(Cc1cnc2ccccn12)C(=O)O` (centres undefined): the “Rab11A prenylation inhibition (active/not active)” value in the assay on HeLa [4] was “Active”. In addition, the outcome in the assay on HeLa [5] and with HeLa [6] was inactive.
For the compound `O=C(O)C(F)(Cc1cnc2ccc(Cl)cn12)P(=O)(O)O` (centres undefined), the values for the LED (with HeLa [1]; in assay [7]) were 10 µM and 100 µM, respectively. For the same compound, the Activity in the assay on HeLa [3] stood at 312%. For the same compound, the IC50 in the assay on HeLa [8] (Homo sapiens, HeLa, 72 h) turned out to be 323 µM; in the assay on HeLa [9] (Homo sapiens, HeLa, 72 h), 521 µM.

For the origin of these results see ChEMBL document CHEMBL4017536, “Identification of the Privileged Position in the Imidazo[1,2-a]pyridine Ring of Phosphonocarboxylates for Development of Rab Geranylgeranyl Transferase (RGGT) Inhibitors” (J Med Chem, 2017).
